The values that follow come from PMC5803215, “Structural basis for amino acid transport by the CAT family of SLC7 transporters” (Nature Communications, 2018).

Assay [1] has as its target T1, GkApcT-MgtS heterodimer (Geobacillus kaustophilus, UniProt A5A616+Q5L1G5).
T1 construct: gene GK0930; heterodimer of G. kaustophilus GkApcT with host-derived E. coli MgtS (YneM); GFP-His tag cut with TEV; expressed in E. coli C43(DE3)
T1 sequence (Q5L1G5 1-471): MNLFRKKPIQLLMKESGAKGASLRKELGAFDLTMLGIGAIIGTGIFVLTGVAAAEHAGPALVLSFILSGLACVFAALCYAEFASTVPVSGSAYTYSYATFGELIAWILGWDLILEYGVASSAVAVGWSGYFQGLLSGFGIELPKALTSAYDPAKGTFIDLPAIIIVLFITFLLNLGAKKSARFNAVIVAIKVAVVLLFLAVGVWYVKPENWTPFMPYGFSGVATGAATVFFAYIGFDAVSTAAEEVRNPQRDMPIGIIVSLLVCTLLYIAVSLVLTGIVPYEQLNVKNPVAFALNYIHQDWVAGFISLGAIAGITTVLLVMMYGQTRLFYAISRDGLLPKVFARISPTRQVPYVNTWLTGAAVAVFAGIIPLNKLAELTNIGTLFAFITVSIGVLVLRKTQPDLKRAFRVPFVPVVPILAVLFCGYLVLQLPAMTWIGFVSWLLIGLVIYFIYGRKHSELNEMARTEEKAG
T1 sequence (A5A616 1-31): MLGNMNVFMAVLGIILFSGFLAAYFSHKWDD
Nature of the assay: thermal stability (circular dichroism). The assay is classed as binding. The following applies: pH 6.5. (Circular dichroism is widely used to follow secondary structure.)

Assay [2] has as its target T1, GkApcT-MgtS heterodimer. The experiment in a line: X-ray crystal structure. The assay is classed as binding. The following applies: site between GkApcT TM5 and MgtS; cholesterol-doped monoolein LCP.
Assay [3] deals with T2, GkApcT (Geobacillus kaustophilus, UniProt Q5L1G5, E115Q).
T2 construct: gene GK0930; cleavable GFP-His tag (pWaldo-GFP) removed with TEV; expressed in E. coli C43(DE3); co-purifies with E. coli MgtS; purified in DM/DDM, reconstituted in POPE:POPG liposomes
The experiment in a line: thermal stability (nanoDSF). It counts as binding. The following applies: 10 mM L-Ala; pH 6.0. On the technique in general: Differential scanning fluorimetry follows unfolding on heating by fluorescence.

The target in assay [4] is T3, GkApcT (Geobacillus kaustophilus, UniProt Q5L1G5).
T3 construct: gene GK0930; cleavable GFP-His tag (pWaldo-GFP) removed with TEV; expressed in E. coli C43(DE3); co-purifies with E. coli MgtS; purified in DM/DDM, reconstituted in POPE:POPG liposomes
T3 sequence (Q5L1G5 1-471): T1 sequence (Q5L1G5 1-471)
The experiment in a line: electrogenic 3H-L-Ala uptake competition in proteoliposomes. It counts as biochemical.

The target of assay [5] is T4, GkApcT (Geobacillus kaustophilus, UniProt Q5L1G5, K191A).
T4 construct: gene GK0930; cleavable GFP-His tag (pWaldo-GFP) removed with TEV; expressed in E. coli C43(DE3); co-purifies with E. coli MgtS; purified in DM/DDM, reconstituted in POPE:POPG liposomes
The experiment in a line: thermal stability (nanoDSF). The following applies: 10 mM L-Ala; pH 6.0. The assay is classed as binding.

The target in assay [6] is T3, GkApcT. Nature of the assay: thermal stability (nanoDSF). It counts as binding. The conditions noted are these: 10 mM L-Ala; pH 6.0.
Assay [7] concerns the target T5, GkApcT (Geobacillus kaustophilus, UniProt Q5L1G5, K191N).
T5 construct: gene GK0930; cleavable GFP-His tag (pWaldo-GFP) removed with TEV; expressed in E. coli C43(DE3); co-purifies with E. coli MgtS; purified in DM/DDM, reconstituted in POPE:POPG liposomes
The experiment in a line: thermal stability (nanoDSF). It counts as binding. The conditions noted are these: 10 mM L-Ala; pH 6.0.

Assay [8] deals with T6, GkApcT (Geobacillus kaustophilus, UniProt Q5L1G5, K191R).
T6 construct: gene GK0930; cleavable GFP-His tag (pWaldo-GFP) removed with TEV; expressed in E. coli C43(DE3); co-purifies with E. coli MgtS; purified in DM/DDM, reconstituted in POPE:POPG liposomes
Nature of the assay: thermal stability (nanoDSF). It counts as binding. The following applies: 10 mM L-Ala; pH 6.0.

Assay [9] has as its target T7, GkApcT (Geobacillus kaustophilus, UniProt Q5L1G5, R334E).
T7 construct: gene GK0930; cleavable GFP-His tag (pWaldo-GFP) removed with TEV; expressed in E. coli C43(DE3); co-purifies with E. coli MgtS; purified in DM/DDM, reconstituted in POPE:POPG liposomes
Nature of the assay: electrogenic 3H-L-Ala uptake competition in proteoliposomes. The assay is classed as biochemical.

In assay [10] the target is T8, GkApcT (Geobacillus kaustophilus, UniProt Q5L1G5, M321S).
T8 construct: gene GK0930; cleavable GFP-His tag (pWaldo-GFP) removed with TEV; expressed in E. coli C43(DE3); co-purifies with E. coli MgtS; purified in DM/DDM, reconstituted in POPE:POPG liposomes
T8 sequence (Q5L1G5 1-471 M321S): T1 sequence (Q5L1G5 1-471) with M321S
Described as above. It counts as biochemical.

The structures appear in SMILES notation. Positions count from the first letter of the chain named.

T7 sequence (Q5L1G5 entry or part of it R334E): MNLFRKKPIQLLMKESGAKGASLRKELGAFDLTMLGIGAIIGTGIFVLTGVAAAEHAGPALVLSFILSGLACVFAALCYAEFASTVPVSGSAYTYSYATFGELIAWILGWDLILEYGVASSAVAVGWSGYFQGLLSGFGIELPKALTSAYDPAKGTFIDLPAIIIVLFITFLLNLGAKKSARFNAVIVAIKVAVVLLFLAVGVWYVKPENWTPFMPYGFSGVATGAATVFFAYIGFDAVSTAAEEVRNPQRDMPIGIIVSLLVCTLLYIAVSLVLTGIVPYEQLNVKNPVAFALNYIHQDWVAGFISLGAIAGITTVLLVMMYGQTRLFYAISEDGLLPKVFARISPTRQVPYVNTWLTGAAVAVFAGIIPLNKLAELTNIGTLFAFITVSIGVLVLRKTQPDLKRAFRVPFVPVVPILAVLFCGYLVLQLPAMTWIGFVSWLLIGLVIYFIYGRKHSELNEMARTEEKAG
T6 sequence (Q5L1G5 entry or part of it K191R): as the sequence (Q5L1G5 entry or part of it R334E) above, with K191R, E334R counted along it
T2 sequence (Q5L1G5 entry or part of it E115Q): as the sequence (Q5L1G5 entry or part of it R334E) above, with E115Q, E334R counted along it
T5 sequence (Q5L1G5 entry or part of it K191N): as the sequence (Q5L1G5 entry or part of it R334E) above, with K191N, E334R counted along it
T4 sequence (Q5L1G5 entry or part of it K191A): as the sequence (Q5L1G5 entry or part of it R334E) above, with K191A, E334R counted along it

Turning to `CC(C)CCC[C@@H](C)[C@H]1CC[C@H]2[C@@H]3CC=C4C[C@@H](OC(=O)CCC(=O)O)CC[C@]4(C)[C@H]3CC[C@]12C` [cholesterol hemisuccinate], the Tm with ligand in assay [1] was 57 to 72 °C.

Regarding `CC(C)CCC[C@@H](C)[C@H]1CC[C@H]2[C@@H]3CC=C4C[C@@H](O)CC[C@]4(C)[C@H]3CC[C@]12C` [cholesterol], the X-ray crystal structure result in assay [2] was “we observed density for a cholesterol molecule in this pocket”.

The term IC50 denotes the concentration at which inhibition is half-maximal. In the case of `C[C@H](N)C(=O)O` [L-Alanine], the dTm result in [3] was “Glu115Gln variant can still recognise alanine to the same extent as wild-type protein”; in assay [5] it was “A similar stabilising effect was also observed in the Lys191Ala, Arg and Asn variants”; in [7], “A similar stabilising effect was also observed in the Lys191Ala, Arg and Asn variants”; in assay [8] it was “A similar stabilising effect was also observed in the Lys191Ala, Arg and Asn variants”. Also, the half-inhibitory concentration (IC50) in [4] came to 2 µM; in [9] it was 0.4 µM. The Tm with ligand in [6] was ~58 to ~69.

As to `N=C(N)NCCC[C@H](N)C(=O)O` [L-arginine], the IC50 in assay [4] is 6000 µM; in assay [10], 11.4 µM.
